According to PMC10391610, “Survivin prevents the polycomb repressor complex 2 from methylating histone 3 lysine 27” (iScience, 2023):

What was measured:
[U-15N]-survivin = molecular target: T1, [U-15N]-survivin (Homo sapiens, UniProt O15392); assay: NMR titration of [U-15N]-survivin with PRC2-derived peptides; assay type: binding; conditions: for NMR cpc (critical peptide concentration): 300 μM [U-15N]-survivin, 50 mM Tris, 150 mM NaCl, 1 mM DTT, pH 7.5, 298 K, Bayesian logistic fit (Table 3); for <L>: logistic function parameter L; for <L> / <b> / <k>: posterior mean (Table S10); for <b>: logistic function parameter b; for <k>: logistic function parameter k
T1 construct: transferred to the survivin1-142 construct used in the present study; His8 tag (pHIS8 vector, thrombin-cleavable); made in house; host or cells: E. coli BL21(DE3) star, M9 medium with 15NH4Cl
Protocol: Uniformly [U] labeled [U-^15N] survivin was produced in H2O-based M9 medium[69] containing ^15NH4Cl as the sole nitrogen and in case of or [U-^15N,^13C] survivin D-(^13C)-glucose was additionally added as the sole carbon source, respectively (Sigma-Aldrich). Expression was induced with 0.5 mM IPTG and continued for 20–22 h at 15°C. Cell harvesting and subsequent purification followed the same protocol as for unlabeled survivin.
NMR measurements were performed on Bruker (Fällanden, Switzerland) AvanceIII 800 MHz spectrometers running Topspin 3.5 or 3.6, respectively, equipped with cryogenically cooled triple resonance probes. All NMR experiments were performed in NMR buffer (50 mM Tris, 150 mM NaCl, 1 mM DTT, pH 7.5) and at 298 K. The sequence-specific backbone assignment of survivin1-117 was taken from previously published assignment,[50] and transferred to the survivin1-142 construct used in the present study. Existing resonance assignments were confirmed, and additional resonances were assigned in a sequence-specific manner by the following experiments: [^1H,^15N]-TROSY HSQC,[70] BEST-TROSY-type HNCA and HNCO experiments.[71]
The peptides were synthetized and purified to 95% by Biomatik. The peptides were titrated into ^15N labelled survivin (0.3 mM). Standard 2D [^15N,^1H]-SOFAST-HMQC[72] experiments were recorded with inter-scan delays of 200 ms and 1025 x 256 complex points for the ^1H and ^15N dimensions, respectively, for the titrations of the different peptides with [U-^15N] survivin.
For the global analysis, the NMR signal strength was quantified by summing the 200 highest values in each 2D NMR spectrum to ensure that all peaks corresponding to the different amino acid residues in survivin are potentially covered. The titration curve was modelled using a Bayesian machine learning approach using the python library pymc3.[66] The logistic function was chosen due to computational convenience. The most important parameter of this function was coined “critical peptide concentration (cpc)” and its logarithm was modelled using a uniform a priori distribution between −10 and 1. p(log10cpc|lower=−10,upper=1)=1/upper−lower
The modelling errors related to the choice of function affect the analysis of different peptides similarly. Therefore, the relative magnitude of cpc in comparison is more reliable than the absolute magnitude of cpc itself. The concentration values were converted to dimensionless quantities by dividing with 1 mM and the NMR signal intensity was normalized for the concentration range studied.
A deterministic sigmoid (logistic) function was used to model signal decay as a function of peptide concentration. Additional a priori assumptions of the function parameters were the following: p(k|lower=−10,upper=10)=1/upper−lower p(L|lower=−3,upper=3)=1/upper−lower p(b|lower=−10,upper=10)=1/upper−lower
1000 posterior samples were collected in four parallel chains using the No-U-Turn sampling algorithm (NUTS) after 2000 tuning steps/chain.[83] The default sampling parameters were used except for “target accept” parameter, which was increased to 0.95. For the final analysis the 1000 samples from the four chains were merged to yield 4000 samples.

survivin = molecular target: T2, survivin (Homo sapiens, UniProt O15392); assay: PEPperCHIP peptide microarray, survivin interaction; assay type: binding; conditions: 1 μg/mL survivin; for Average FI (%): anti-His tag DyLight680 read-out, percentage of maximum fluorescence intensity units (64193) per peptide; for Average FI (%) / Integrated FI: 15-mer microarray peptides covering the residues; for Integrated FI: in units of the maximum FI per peptide; for survivin interaction / fluorescence on microarray (in words): peptide microarray
T2 construct: transferred to the survivin1-142 construct used in the present study; His8 tag (pHIS8 vector, thrombin-cleavable); made in house; host or cells: E. coli BL21(DE3) star
Text: We were looking for potential direct interactions between survivin and short peptide sequences originating from PRC2 subunits and other proteins involved in histone modifications based on the in vivo results. Therefore, we created a peptide microarray of overlapping peptides obtained from EZH2, EED, SUZ12, and JARID2 to investigate how survivin interacts with the activity of the PRC2 complex. These subunits form the core of PRC2, and the interaction of survivin with the PRC2 molecular scaffold indicates a potentially disruptive role for survivin in PRC2 function. The fluorescence signal generated by labeled survivin is compared in Figure 2 as a function of position along the polypeptide chain of PRC2 subunits. Figure S1 depicts the raw fluorescence images. Moreover, the microarray fluorescence intensities projected on the three-dimensional structure of the PRC2 core complex are shown in Figure 3. The whole dataset is deposited at the Zenodo data base.
The location of survivin on the peptide microarray was clearly correlated with the amino acid content of the peptide at 1 μg/mL survivin concentration. When evaluating how accurate the predictions were, one should keep in mind that the primary and higher-order structures of the peptide were not at all considered in this analysis. Mislabeling peptides is possible for multiple reasons. The smallest fluorescence signal was chosen as the limit of detection and photon-counting errors may cause weak interactions to be undetected at low fluorescence intensities. Moreover, if the fluorescence intensity of experimental duplicates varied by more than 40%, a peptide was classified as non-interacting even if the lack of reproducibility is ambiguous evidence for the lack of interaction. […] Reducing the number of hidden layer perceptrons from 100 (the default value) to 9 had no effect on the classifier’s performance. Even a 15 amino acid peptide segment composition gives a high degree of uniqueness and highly scalable intensity for survivin-peptide interaction. Survivin has a non-globular structure with no deep binding pockets.
A peptide microarray was designed using the protein sequences from: Cdk1 (P06493), KAT2A/GCN5 (Q92830), SPI1/PU1 (P17947), SUZ12 (Q15022), EED (O75530), JADE3 (Q92613), DIABLO/SMAC (Q9NR28), BOREALIN (Q53HL2), INCENP (Q9NQS7), SGOL1 (Q5FBB7), SGOL2 (Q562F6), EZH2 (Q15910), JARID2 (Q92833), Histone H3 (P68431), AURORAKB (Q96GD4), JADE1 (Q6IE81), JTB (O76095), EVI5 (O60447), RAN (P62826), USP9X (Q93008), C-IAP1 (Q13490), STAT3 (P40763), BRUCE/APOLLON (Q9NR09), XPO1 (O14980), CDX2 (Q99626), Msx2 (P35548), RBM15 (Q96T37), PHF21A (Q96BD5), PHF8 (Q9UPP1), DIDO (Q9BTC0), JADE2 (Q9NQC1) and HASPIN (Q8TF76). The Uniprot ID is shown in parenthesis. The protein sequences were divided into 15 amino acid long peptides with a 10 amino acid overlap. To investigate background interactions with the protein-derived peptides that could interfere with the main assays, one of the PEPperCHIP Peptide Microarrays (PEPperPRINT Gmbh) was pre-staining with the secondary 6x His Tag Antibody DyLight680 antibody at a dilution of 1:1000 and with the monoclonal anti-HA (12CA5)-DyLight800 control antibody at a dilution of 1:1000. Subsequent incubation of other peptide microarray copies with survivin at a concentration of 1 μg/ml in incubation buffer was followed by staining with the secondary 6x His Tag Antibody DyLight680 antibody (Rockland Immunochemicals, Pottstown, PA, USA) and the monoclonal anti-HA (12CA5)-DyLight800 control antibody (Rockland Immunochemicals, Pottstown, PA, USA). The read-out was performed by scanning intensities of 7/7 (red/green). As an internal quality control, HA and His tag control peptides were stained simultaneously to confirm assay quality and to facilitate grid alignment for data quantification. The LI-COR Odyssey Imaging System was used for read-out, and the PepSlide Analyzer was used for quantification of spot intensities and peptide annotation. […]

T1 sequence (O15392 whole entry): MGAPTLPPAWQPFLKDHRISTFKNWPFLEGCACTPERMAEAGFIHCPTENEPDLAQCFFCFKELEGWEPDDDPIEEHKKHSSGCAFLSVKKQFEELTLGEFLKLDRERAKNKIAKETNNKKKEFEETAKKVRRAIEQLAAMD
T2 sequence (O15392 whole entry): as above

Sequence | NMR cpc (critical peptide concentration) ([U-15N]-survivin) [µM] | <L> ([U-15N]-survivin) | <b> ([U-15N]-survivin) | <k> ([U-15N]-survivin) | Average FI (%) (survivin) | Integrated FI (survivin) | survivin interaction / fluorescence on microarray (in words) (survivin)
PLRPQEMEVDSEDEKDPEWLREKTI [SUZ12_573-597, PRC2-derived peptide, SUZ12 residues 573–597, synthesized by Biomatik] | 0.0066 | -0.59 | 0.87 | 0.99 | 20 | 0.6 | high survivin-associated fluorescence intensity
SQGEIRLLQSYVDADADENFYTCAW [EED128-152, PRC2-derived peptide, EED residues 128–152, synthesized by Biomatik] | 0.0076 | -0.00 | 0.51 | -0.01 | 10 | 0.31 | high survivin-associated fluorescence intensity
PNSMVYFGSSQDEEEVEEEDDETED [JARID2_170-194, PRC2-derived peptide, JARID2 residues 170–194, synthesized by Biomatik] | 0.0085 | -0.53 | 0.79 | 1.25 | 100 | 3.00 | high survivin-associated fluorescence intensity
